Values quoted from earlier work in US5908840A, “Hetero-biaryl-pyridoquinazolinone derivatives as anti-cancer agents” (American Cyanamid Company, priority 1997, dated 1999).

Experiments:
[1] = Denny et al.; Ebeid et al.
[2] = tested on: P388; conditions: Denny et al., Mutation Research 232: 233 (1990)
[3] = Denny et al., Mutation Research 232: 233 (1990)

What does the source list for CN(C)CCNC(=O)c1cccn2c(=O)c3ccccc3nc12 [I, N-[2-(dimethylamino)ethyl]-11-oxo-11H-pyrido[2,1-b]quinalzoline-6-carboxamide]?
in vitro activity [1]: some in vitro activity; activity in a P388 mouse model [2]: inactive; mutagenic activity [3]: mutagenic activity
